The EC50 is the concentration needed to bring the measured effect to its halfway point. Low readings indicate a more potent agent, high ones a less potent agent.

We go through 11 compounds from US12522562B2, “Intestine-specific partial agonists of farnesoid X receptor and uses thereof” (EWHA DrugDesignHouse Co., Ltd., priority 2022, dated 2026).

The test deals with T1, FXR (Homo sapiens, UniProt Q96RI1).
T1 sequence (Q96RI1 1-486): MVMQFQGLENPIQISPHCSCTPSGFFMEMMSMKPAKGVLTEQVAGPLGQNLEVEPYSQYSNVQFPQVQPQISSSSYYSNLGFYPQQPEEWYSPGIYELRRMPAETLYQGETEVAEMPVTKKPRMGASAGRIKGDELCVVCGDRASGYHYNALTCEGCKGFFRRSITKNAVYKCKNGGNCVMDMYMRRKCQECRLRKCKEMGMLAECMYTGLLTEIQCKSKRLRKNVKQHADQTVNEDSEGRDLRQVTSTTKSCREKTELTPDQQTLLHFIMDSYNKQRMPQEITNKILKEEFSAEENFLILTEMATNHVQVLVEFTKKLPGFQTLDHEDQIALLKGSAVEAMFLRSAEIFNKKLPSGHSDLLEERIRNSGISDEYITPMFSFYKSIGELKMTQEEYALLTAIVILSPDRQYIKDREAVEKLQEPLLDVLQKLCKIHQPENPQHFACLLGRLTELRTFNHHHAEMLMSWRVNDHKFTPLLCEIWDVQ
Nature of the test: PathHunter NHR protein interaction assay, agonist mode (FXR). The note with it: for Emax: relative to GW4064, top conc. 3.3 μM.

Setting [1] is: Table 4, 5 concentrations, 3-fold dilution from 3.3 μM (GW4064: 10 conc. from 10 μM), one experiment in duplicate, NA = inactive at 3.3 μM.
[2] abbreviates: read-out: % max. rel. efficacy, Table 4, one experiment in duplicate.
Where [3] appears, read: read-out: % max. rel. efficacy, Table 2, one experiment in duplicate.

The structures appear in SMILES notation. Like-named read-outs stand apart in the source and are kept apart here.

Protocol: PathHunter® CHO-K1 FXR protein interaction cells were expanded from freezer stocks according to standard procedures. Cells were seeded in a total volume of 20 μL into white walled, 384-well microplates and incubated at 37° C. for the appropriate time prior to testing. Assay media contained charcoal-dextran filtered serum to reduce the level of hormones present. For agonist determination, cells were incubated with sample to induce response. […] For antagonist determination, cells were pre-incubated with antagonist followed by agonist challenge at the EC80 concentration. […] Microplates were read following signal generation with a PerkinElmer Envision™ instrument for chemiluminescent signal detection. Compound activity was analyzed using CBIS data analysis suite (ChemInnovation, CA). For agonist mode assays, percentage activity was calculated using the following formula: % Activity=100%×(mean RLU of test sample−mean RLU of vehicle control)/(mean MAX control ligand−mean RLU of vehicle control).
In this assay, two weakly complementing fragments of the β-galactosidase are expressed within stably transfected cells. The complementing fragments of the β-galactosidase are translationally fused to the C-terminus of a full-length FXR and to the steroid receptor coactivator peptide (SRCP), respectively. When bound by ligand, the FXR will migrate to the nucleus and recruit the SRCP domain, whereby complementation occurs, generating a unit of active β-galactosidase and production of chemiluminescent signal. Thus, measurement of chemiluminescent signal directly reflects FXR-coactivator interaction.

The compound `COC(=O)/C=C/c1cc(N(Cc2ccc(-c3ccc(N(C)C)cc3)c(C#N)c2)C(=O)C2CCCCC2)ccc1F` [Example 14] had an EC50 under setting [1] of 1500 nM. In addition, the Emax under setting [2] came out at 23%.
As for `CC(C)OC(=O)/C=C/c1ccc(F)c(N(Cc2ccc(-c3ccc(N(C)C)cc3)c(C#N)c2)C(=O)C2CCCCC2)c1` [Example 22, (E)-3-(3-((2-cyano-4′-dimethylaminobiphenyl-4-ylmethyl)cyclohexanecarbonylamino)-4-fluorophenyl)acrylic acid isopropyl ester], the Emax under setting [2] stood at 3%.
As to `CCOC(=O)/C=C/c1cc(F)cc(N(Cc2ccc(-c3ccc(N(C)C)cc3)c(C#N)c2)C(=O)C2CCCCC2)c1` [Example 12, (E)-3-(3-((2-cyano-4′-dimethylaminobiphenyl-4-ylmethyl)cyclohexanecarbonylamino)-5-fluorophenyl)acrylic acid ethyl ester], a half-maximal response under setting [1] (EC50) required 1000 nM. Further, under setting [2], the Emax is 47%.
The corresponding values for `COC(=O)/C=C/c1cccc(N(Cc2ccc(-c3ccc(N(C)C)cc3C#N)c(C#N)c2)C(=O)C2CCCCC2)c1` [Example 8, (E)-3-(3-(cyclohexanecarbonyl-(2,2′-dicyano-4′-dimethylaminobiphenyl-4-ylmethyl)-amino)phenyl)acrylic acid methyl ester] are 1600 nM and 10%.
The corresponding values for `COC(=O)/C=C/c1cccc(N(Cc2ccc(-c3ccc(N(C)C)cc3)c(C#N)c2)C(=O)C2CCCCC2)c1F` [Example 17, (E)-3-(3-((2-cyano-4′-dimethylaminobiphenyl-4-ylmethyl)cyclohexanecarbonylamino)-2-fluorophenyl)acrylic acid methyl ester] are 1300 nM and 19%.
Taken in the same sequence, the figures for `CN(C)c1ccc(-c2ccc(CN(C(=O)C3CCCCC3)c3cccc(/C=C/C(=O)OC4CC4)c3)cc2C#N)cc1` [Example 23, (E)-3-(3-((2-cyano-4′-dimethylaminobiphenyl-4-ylmethyl)cyclohexanecarbonylamino)phenyl)acrylic Acid Cyclopropyl Ester] were 900 nM and 46%.
In the case of `CCOC(=O)/C=C/c1cccc(N(Cc2ccc(-c3ccc(N(C)C)cc3)c(C#N)c2)C(=O)C2CCCCC2)c1` [Example 9, (E)-3-(3-((2-cyano-4′-dimethylaminobiphenyl-4-ylmethyl)cyclohexanecarbonylamino)phenyl)acrylic acid ethyl ester], the EC50 under setting [1] is 1200 nM. In addition, under setting [2], the Emax was determined as 40%.
Take `CC(C)OC(=O)/C=C/c1cc(F)cc(N(Cc2ccc(-c3ccc(N(C)C)cc3)c(C#N)c2)C(=O)C2CCCCC2)c1` [Example 13, (E)-3-(3-((2-cyano-4′-dimethylaminobiphenyl-4-ylmethyl)cyclohexanecarbonylamino)-5-fluorophenyl)acrylic acid isopropyl ester]: under setting [1], the 50% effective concentration (EC50) came out at 800 nM. For the same compound, the Emax under setting [2] came out at 20%.
Take `COCc1cc(CN(C(=O)C2CCCCC2)c2cccc(/C=C/C(=O)OC)c2)ccc1-c1ccc(N(C)C)cc1` [Example 2, (E)-3-(3-(cyclohexanecarbonyl-(4′-dimethylamino-2-methoxymethylbiphenyl-4-ylmethyl)amino)phenyl)acrylic acid methyl ester]: the EC50 is > 10000 nM. For the same compound, the Emax under setting [3] worked out at 5%.
On to `COC(=O)/C=C/c1cccc(N(Cc2ccc(-c3ccc(N(C)C)cc3)c(C3OCCO3)c2)C(=O)C2CCCCC2)c1` [Example 3, (E)-3-(3-(cyclohexanecarbonyl-(4′-dimethylamino-2-[1,3]dioxolan-2-ylbiphenyl-4-ylmethyl)amino)phenyl)acrylic acid methyl ester], for which, under setting [3], the Emax came to 3%.
As for `CCOC(=O)/C=C/c1ccc(F)c(N(Cc2ccc(-c3ccc(N(C)C)cc3)c(C#N)c2)C(=O)C2CCCCC2)c1` [Example 21, (E)-3-(3-((2-cyano-4′-dimethylaminobiphenyl-4-ylmethyl)cyclohexanecarbonylamino)-4-fluorophenyl)acrylic acid ethyl ester], the EC50 under setting [1] is 1600 nM. Besides, the Emax under setting [2] turned out to be 9%.
